Data: patent publication EP4817594A1, “SKIN CONDITION IMPROVEMENT COMPOSITION COMPRISING GLUTATHIONE-CONTAINING EXOSOME-LIKE VESICLES” (Cosmax, Inc., priority 2023, dated 2025)
Like-named read-outs stand apart in the source and are kept apart here.

Method: At this time, reduced glutathione was used as a standard.
Each of the diluted standard, the sample of Comparative Example 1 diluted in tertiary distilled water, the sample of Example diluted in tertiary distilled water, and the sample of Comparative Example 2 diluted in tertiary distilled water was filtered through a 0.2 µm-syringe filter, and the filtrate was put into a vial for HPLC. 10 ul was injected into a C18 column, and the samples were eluted at a flow rate of 1 ml/min, and the values were measured by using a DAD detector.

Relative concentration of reduced glutathione (GSH) (Immediately after loading, 25 °C, light blocked): 1.00 | Relative concentration of reduced glutathione (GSH) (water, 4380 h): 0.21 | glutathione concentration compared to the initial concentration (water, 4380 h): about 20% | Relative concentration of reduced glutathione (GSH) (water, 8766 h): 0.06 | glutathione concentration compared to the initial concentration (water, 8766 h): about 6%
SMILES: N[C@@H](CCC(=O)N[C@@H](CS)C(=O)NCC(=O)O)C(=O)O [Comparative Example 1, Glutathione]
